System: human hepatic cell line HepG2
Test: Anti-cancer assay: cytotoxicity on HepG2 cells, trypan blue counting
Type: cell-based
Procedure: The cells were seeded at a density of 2.5×10^5 cell per ml in a 24 well plate. The cells were allowed to attach for 2 hour before adding the extracts at a concentration of 10 μg/ml. […] The cell viability was determined after 24 hours.
Seed HepG2 at a cell density of 2.5×10^5 cells per ml. […] Incubate in 5% CO2 incubator at 37° C. for 48 hour. Trypsinize cell. Mix with 1 part trypan blue and 4 parts PBS and count the viable cells and the non-viable cells by counting the cells that has taken typan blue (non-viable cells) and the ones that has excluded it (viable cells).

Structure (SMILES): O=C1O[C@H]([C@@H](O)CO)C(O)=C1O [ascorbic acid]
- No. of live cells: 66.5

Reference: patent publication US20100129478A1, “Plant Extracts and Methods and Uses Therefore” (priority 2005, published 2010)
